Laboratory results as given in article PMC9267992, “Synthesis, Self-Assembly, and Cell Responses of Aromatic IKVAV Peptide Amphiphiles” (Molecules, 2022).

How the values were obtained:
[1] = not given; remark: listed apart in the source
[2] = Oscillatory rheology of the hydrogels; type: physicochemical; details: 1 wt.%, pH 7.4, oscillatory rheology, ω = 0.1–100 rad·s^−1
Description: (§1) For biomedical applications, the self-assembly properties of Ben-IKVAV and PFB-IKVAV were investigated under physiological conditions. […] The corresponding microscopic morphologies were examined by transmission electron microscopy (TEM). […] The nanofibers are intertwined to form fiber bundles with a width of about 17 ± 1 nm. In contrast, PFB-IKVAV produces short nanofibers (diameter around 10 ± 1 nm). These fibrous nanostructures are distributed in water and entangled within a highly organized peptide-amphiphile nanofibers network (i.e., Ben-IKVAV and PFB-IKVAV), allowing for the formation of stable hydrogels. Moreover, the Tgel-sol of Ben-IKVAV and PFB-IKVAV were 65 and 55 °C, respectively. […] Furthermore, the self-assembly of Ben-IKVAV and PFB-IKVAV are viscoelastic gels, because the values of the G′ are higher than those of the loss modulus (G″) in both gels.
Figure 3 Frequency-dependent (ω = 0.1–100 rad·s^−1) rheological measurement of Ben-IKVAV (circle) and PFB-IKVAV (square) at a concentration of 1 wt.% under pH 7.4 (solid for G′ and open for G′′).

hMSCs [3] = assay: MTT cell viability test; type: cell-based, human; details: for cell viability: 500 μM, 48 h, ODsample/ODcontrol; for IC50: 10–500 μM, 24 and 48 h, read-out: half-inhibitory concentration (IC50)
Description: To evaluate the potential biological applications of Ben-IKVAV and PFB-IKVAV, we performed a biocompatibility test of these hydrogelators against hMSCs through MTT [3-(4,5-dimethylthiazol-2-yl)-2,5-diphenyltetrazolium bromide] assay, and the results are presented in Figure 6. The concentrations of Ben-IKVAV and PFB-IKVAV were selected in the range of 10–500 μM, and the cell viability measurements were processed at 24 and 48 h after cell seeding.
The biocompatibilities of Ben-IKVAV and PFB-IKVAV were measured by the MTT cell viability test. The hMSCs were seeded in 24-well plates (density: 50,000 cells per well) with Dulbecco’s modified Eagle’s medium (DMEM, 0.5 mL) containing 10% […] and 1% penicillin/streptomycin solution and then incubated for 24 h. Compounds of Ben-IKVAV and PFB-IKVAV at different concentrations (10, 50, 100, 200, and 500 µM) were added when cells were plated. After 24 and 48 h, the medium was replaced with fresh medium supplemented with MTT reagent (4 mg mL^–1, 0.5 mL per well). After another 4 h, the medium containing MTT was removed, and DMSO (0.5 mL per well) was added to dissolve the formazan crystals. Each of the 24 wells was transferred to a 96-well plate. The optical densities (ODs) of the resulting solutions were measured at 595 nm using an absorbance microplate reader (Infinite F50, TECAN, Männedorf, Switzerland). Cells that had not been subjected to treatment with the compounds were used as the control. The cell viability percentage (%) was calculated from the expression ODsample/ODcontrol.

[4] = Thioflavin T (ThT) fluorescence assay for fibrillar peptide structures; type: physicochemical; details: ratio of ThT emission intensities (I0: without adding hydrogelators), emission at 484 nm
Description: (§2) Since Ben-IKVAV and PFB-IKVAV could self-assemble to form the network of nanofibers and afford the hydrogels, we further studied the driving force for the intermolecular interactions of the hydrogelators using spectroscopic characterization. […] The UV-vis absorption and circular dichroism (CD) spectra of Ben-IKVAV and PFB-IKVAV in water and methanol are presented in Figure 4. The absorption peaks of Ben-IKVAV are at 262 nm and 254 nm in water and methanol, respectively, indicating the redshift feature caused by the aggregation formation in an aqueous solution. […] CD spectra were recorded to understand the structural properties and molecular arrangement of Ben-IKVAV and PFB-IKVAV (Figure 4C,D). At low concentrations of Ben-IKVAV and PFB-IKVAV (50 and 500 μM) in water, no CD signals were detected in the wavelength region 190–350 nm. […] In addition, Fourier-transform infrared spectroscopy (FT-IR) was employed to verify the hydrogen interactions between molecules in the self-assembled state. […] Since thioflavin T (ThT) is a well-known fluorescent dye utilized to identify the presence of amyloid fibrils, we used the ThT fluorescence assay to further confirm the fibrillar peptide structures present in Ben-IKVAV and PFB-IKVAV. It is known that when ThT binds to β-amyloid fibrils, a remarkable enhancement in fluorescence intensity can be detected at 484 nm. […]

[5] = Concentration-dependent circular dichroism in water; type: physicochemical; details: CD: no signal at 50 and 500 μM, Cotton effect at 1000 μM
Description: as §2

hMSCs [6] = assay: Neural differentiation of hMSCs in neural induction medium (cell morphology, neurite outgrowth); type: cell-based, human; details: 1000 μM in NIM; for differentiation of hMSCs into neuron-like cells: cultured 0, 2 and 7 days; for cell morphology and axon extension length (average neurite outgrowth length) versus NIM control: days 2 and 7, n = 50
Description: Since Ben-IKVAV and PFB-IKVAV are biocompatible, we then diluted 1 wt.% of Ben-IKVAV and PFB-IKVAV hydrogels with basal medium and neural induction medium (NIM) to 1000 μM, respectively, and cultured them with hMSCs for 0, 2, and 7 days (Figure S2 and Figure 7). […] The fibrous structures of Ben-IKVAV or PFB-IKVAV scattered in the culture medium (NIM) are combined with cell surface receptors to promote neural differentiation. To understand the effect of neural differentiation of hMSCs, the average neurite outgrowth lengths on days 2 and 7 were measured in the control and experimental groups (i.e., Ben-IKVAV in NIM and PFB-IKVAV in NIM).
The hMSCs were grown in 24-well plates (density: 2.4 × 10^5 cells per well) in NIM supplemented with 1% penicillin/streptomycin, 10^−7 M dexamethasone, 50 μg/mL L-Ascorbic acid-2 phosphate, 50 μM indomethacin, 10 μg/mL insulin, and 0.45 mM 3-isobutyl-1-methyl-xanthine. The cells cultured in a basal medium were used as a negative control.

hMSCs [7] = assay: RT-qPCR analysis of neuronal-specific markers (Nestin, β-tubulin, SNCA, MAP2); type: cell-based, human; details: 1000 µM in NIM
Description: To investigate whether IKVAV derivatives can effectively promote the differentiation of stem cells into neural cells, we diluted 1 wt.% of Ben-IKVAV and PFB-IKVAV hydrogels with NIM to 1000 µM, respectively, and cultured hMSCs for 0, 2, and 7 days. The mRNA was collected from NIM, NIM in the presence of Ben-IKVAV, and NIM in the presence of PFB-IKVAV and subjected to real-time quantitative polymerase chain reaction (RT-qPCR) analysis. The expression of neuronal-specific markers, Nestin, β-tubulin, SNCA, and MAP2 are analyzed in this work.
Total RNA was isolated from the control and induced (Neurogenic) hMSCs and quantified with a spectrophotometer (NanoPhotometer™ Pearl Design Edition, Westlake Village, CA, USA). Complementary DNA (cDNA) was synthesized from the total purified RNA (1 μg) using a MMLV High-Performance Reverse Transcriptase kit with a 10 μM OligodT primer at 37 °C for 1 h. […] The RT-qPCR reaction was carried out with initial denaturation at 95 °C for 10 min, followed by 40 cycles of PCR at 95 °C for 15 s, and 60 °C for 60 s.

[8] = Hydrogelation / self-assembly under physiological conditions; type: physicochemical; details: for hydrogel formation: 1 wt.% (ca. 15 mM), pH 7.4; for Tgel-sol: hydrogel
Description: as §1

MAP2 in hMSCs = assay: Immunofluorescent staining for neuronal-specific marker MAP2; type: cell-based, human; details: neural induction medium in the presence of the peptide, day 7
Description: After neuronal inductions of hMSCs, immunofluorescent staining for neuronal-specific markers of β-tubulin and MAP2 was achieved. Figure 10 presents immunostaining for β-tubulin (green) with DAPI (blue) co-staining in hMSCs cultured with NIM (control), NIM in the presence of Ben-IKVAV, and NIM in the presence of PFB-IKVAV for days 1, 2, and 7. It can be seen that there is no β-tubulin stained on day 1. […] On the 7th day of culture, a more evident increase of β-tubulin was observed. […] It is speculated that the nuclear entry may be related to the initiation of the regulation of the gene level in the nucleus to make the differentiation more complete. […] After 7 days of differentiation, the cells gradually tended to mature nerve cells. Among these materials, PFB-IKVAV is the best one for helping cell differentiation.
After neuronal inductions of hMSCs, immunostaining was performed for neuronal-specific markers. Cells were fixed with 4% formaldehyde for 15 min and permeabilized with PBST buffer (0.1% Triton X-100 supplemented with BSA). After permeabilization, cells were blocked with Blocking buffer (PBST buffer + 5% serum) for 30 min and then incubated with primary antibodies β-tubulin (1:100) and MAP2 (1:200) at 4 °C overnight. […] Finally, cells were observed under a fluorescence microscope.

[9] = Negatively stained TEM of the hydrogels; type: physicochemical; details: 1 wt.%, pH 7.4
Description: as §1
Figure 2 Optical (insets) and negatively stained TEM images of (A) Ben-IKVAV and (B) PFB-IKVAV at a concentration of 1 wt.% under pH 7.4. (Scale bar: 100 nm).

[10] = not given; remark: listed apart in the source
[11] = not given; remark: listed apart in the source

perfluorophenyl-capped Ile-Lys-Val-Ala-Val
FT-IR absorption peak (hydrogen bonding): 1630 cm⁻¹
new absorption band in water [1]: 285 nm

perfluorophenyl-capped Ile-Lys-Val-Ala-Val [PFB-IKVAV, IKVAV N-terminally coupled with 2-(perfluorophenyl)acetic acid; hydrogelator]
storage modulus (G′) [2]: 2.4 kPa
cell viability (hMSCs [3]): over 75%
IC50 (hMSCs [3]): > 500 µM
ThT fluorescence enhancement ratio [4]: 210
concentration at which the peptide self-assembles into high-order supramolecular structures [5]: higher than 1000 μM
differentiation of hMSCs into neuron-like cells (hMSCs [6]): could successfully differentiate hMSCs into neuron-like cells
cell morphology and axon extension length (average neurite outgrowth length) versus NIM control (hMSCs [6]): no significant difference
cell differentiation ability (comparison of the two peptides) (hMSCs [7]): better cell differentiation ability than Ben-IKVAV
hydrogel formation [8]: form white translucent hydrogels
Tgel-sol [8]: 55 °C
immunofluorescent staining for MAP2 relative to neural induction medium (control) (MAP2 in hMSCs): 4.6 times
nanofiber diameter [9]: around 10 ± 1 nm

phenyl-capped Ile-Lys-Val-Ala-Val
FT-IR absorption peak (hydrogen bonding): 1630 cm⁻¹
absorption peak in methanol [10]: 254 nm
absorption peak in water [11]: 262 nm

phenyl-capped Ile-Lys-Val-Ala-Val [Ben-IKVAV, phenyl-capped pentapeptide; IKVAV N-terminally coupled with 2-phenylacetic acid; hydrogelator]
storage modulus (G′) [2]: 32.0 kPa
cell viability (hMSCs [3]): over 75%
IC50 (hMSCs [3]): > 500 µM
ThT fluorescence enhancement ratio [4]: 140
concentration at which the peptide self-assembles into high-order supramolecular structures [5]: higher than 1000 μM
differentiation of hMSCs into neuron-like cells (hMSCs [6]): could successfully differentiate hMSCs into neuron-like cells
cell morphology and axon extension length (average neurite outgrowth length) versus NIM control (hMSCs [6]): no significant difference
hydrogel formation [8]: form white translucent hydrogels
Tgel-sol [8]: 65 °C
nanofiber diameter [9]: 4 ± 2 nm
width of fiber bundles [9]: about 17 ± 1 nm
